# How the values were obtained:
# [1] = CD spectroscopy, helicity from ellipticity at 222 nm; format: physicochemical; details: calculated from ellipticity values at 222 nm from CD measurements
# Protocol: CD spectroscopy was performed in order to determine if the peptides with the least inhibitory activity were altered structurally. […] Therefore, the lack of inhibitory activity of these two mutants may be at least in part due to alterations in structure.
# Lyophilized peptides were resuspended in 10 mM KF and adjusted to pH 8 with KOH. Spectra were recorded at the indicated peptide concentrations with an Aviv 62DS SpectroPolarimeter at 0° C. in a 0.1 cm pathlength cuvette. Wavelength scans were recorded at 1 nm intervals with a 5 second averaging time, and 5 to 10 scans were averaged. Peptide concentrations were determined by quantitative amino acid analysis. Unfolding curves were obtained by monitoring mean residue ellipticity at 222 nm as a function of the concentration of guanidine-HCl and temperature.
# HSV Pol and UL42 = biological target: T1, HSV Pol and UL42 (Human herpesvirus 1, UniProt P10226); assay: Inhibition of UL42-mediated long-chain DNA synthesis (polymerase assay, poly(dA)/oligo(dT) primer/template); format: biochemical
# T1 construct: made in house; host or cells: insect cells infected with recombinant baculoviruses
# T1 sequence (P10226 whole entry): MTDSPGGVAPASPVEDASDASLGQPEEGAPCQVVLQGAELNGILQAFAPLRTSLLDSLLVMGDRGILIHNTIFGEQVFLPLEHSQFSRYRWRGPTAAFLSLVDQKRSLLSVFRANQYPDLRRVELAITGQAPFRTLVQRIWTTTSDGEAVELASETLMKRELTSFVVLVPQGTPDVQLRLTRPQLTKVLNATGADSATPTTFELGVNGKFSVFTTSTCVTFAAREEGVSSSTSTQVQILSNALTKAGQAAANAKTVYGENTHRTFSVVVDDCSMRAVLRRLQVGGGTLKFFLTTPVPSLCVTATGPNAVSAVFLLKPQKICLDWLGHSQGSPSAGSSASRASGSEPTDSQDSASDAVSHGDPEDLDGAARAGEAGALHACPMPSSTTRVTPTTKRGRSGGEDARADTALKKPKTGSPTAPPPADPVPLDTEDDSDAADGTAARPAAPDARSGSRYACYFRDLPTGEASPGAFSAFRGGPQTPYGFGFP
# Description: To perform structure-activity studies, “alanine scan” mutants of peptide E, in which each non-alanine residue was individually converted to an alanine, were synthesized and tested for their ability to inhibit long-chain DNA synthesis by Pol and UTL42. A poly(dA)/oligo(dT15) template/primer was employed. On this primer/template, Pol alone adds only one or two bases, but when UL42 is present, longer DNA products are formed. DNA products greater than 18 bases were quantified at varying peptide concentrations and expressed as a percentage of products formed by Pol/UL42 in the presence of vehicle control.
# Reaction mixtures contained 50 mM Tris-Cl (pH 7.6), 100 mM (NH4)2SO4, 3 mM MgCl2, 0.1 mM EDTA, 1 mM dithiothreitol, 0.1 μg BSA, 4% glycerol, 0.25 μg of poly(dA)-oligo(dT) primer/template, […] [^32P]-TTP (5 Ci/mMol), 100 fmol of HSV Pol, 200 fmol of UL42 and varying concentrations of peptide inhibitors in a final volume of 25 μL. Reactions were carried out at 37° C. for 5 to 10 minutes. Reactions were stopped by placing them on ice and adding 5 μL of alkaline loading buffer (2 mM EDTA, 50 mM NaOH, 2.5% glycerol, 0.025% bromcresol green) and were then loaded onto a 4% alkaline agarose gel. Gels were dried overnight and used to expose film and phosphoresence screens. Because Pol alone added only 1-2 nucleotides to the 15 base primer, newly synthesized DNA larger than 18 bases was defined as long-chain and quantified using a Molecular Dynamics Phosphorimager.
Compound,% Helicity [1],IC50 (HSV Pol and UL42)
CSCC[C@H](NC(=O)[C@H](CCCNC(=N)N)NC(=O)[C@H](CCCNC(=N)N)NC(=O)[C@@H](NC(=O)[C@H](CCC(=O)O)NC(=O)[C@H](CCC(=O)O)NC(=O)[C@H](C)NC(=O)[C@@H](NC(=O)[C@H](C)NC(=O)CNC(=O)[C@H](C)NC(=O)CNC(=O)[C@@H](NC(=O)[C@H](C)NC(=O)CNC(=O)[C@H](Cc1ccccc1)NC(=O)CNC(=O)[C@H](C)NC(=O)[C@H](C)NC(=O)[C@H](CCCNC(=N)N)NC(=O)[C@H](CC(C)C)NC(=O)[C@H](CCCNC(=N)N)NC(=O)[C@H](C)NC(=O)[C@H](C)NC(=O)[C@@H](NC(=O)[C@H](CC(=O)O)NC(=O)[C@H](CC(=O)O)NC(C)=O)C(C)C)C(C)C)[C@@H](C)O)[C@@H](C)O)C(=O)N[C@@H](CC(C)C)C(=O)N[C@@H](Cc1c[nH]cn1)C(=O)N[C@@H](CCCNC(=N)N)C(=O)N[C@@H](C)C(=O)N[C@@H](Cc1ccccc1)C(=O)N[C@@H](CC(=O)O)C(=O)N[C@H](C(=O)N[C@@H](CC(C)C)C(=O)N[C@@H](C)C(=O)O)[C@@H](C)O [Peptide A],20%,–
CSCC[C@H](NC(=O)[C@H](CCCNC(=N)N)NC(=O)[C@H](CCCNC(=N)N)NC(=O)[C@@H](NC(=O)[C@H](CCC(=O)O)NC(=O)[C@H](C)NC(=O)[C@H](C)NC(=O)[C@@H](NC(=O)[C@H](C)N)[C@@H](C)O)[C@@H](C)O)C(=O)N[C@@H](CC(C)C)C(=O)N[C@@H](Cc1c[nH]cn1)C(=O)N[C@@H](CCCNC(=N)N)C(=O)N[C@@H](C)C(=O)N[C@@H](Cc1ccccc1)C(=O)N[C@@H](CC(=O)O)C(=O)N[C@H](C(=O)N[C@@H](CC(C)C)C(=O)N[C@@H](C)C(=O)O)[C@@H](C)O [Peptide E22A],–,> 100 µM
CSCC[C@H](NC(=O)[C@H](CCCNC(=N)N)NC(=O)[C@H](CCCNC(=N)N)NC(=O)[C@@H](NC(=O)[C@H](CCC(=O)O)NC(=O)[C@H](CCC(=O)O)NC(=O)[C@H](C)NC(=O)[C@@H](NC(=O)[C@H](C)NC(C)=O)[C@@H](C)O)[C@@H](C)O)C(=O)N[C@@H](CC(C)C)C(=O)N[C@@H](Cc1c[nH]cn1)C(=O)N[C@@H](CCCNC(=N)N)C(=O)N[C@@H](C)C(=O)N[C@@H](C)C(=O)N[C@@H](CC(=O)O)C(=O)N[C@H](C(=O)N[C@@H](CC(C)C)C(=O)N[C@@H](C)C(N)=O)[C@@H](C)O [Peptide F32A],28%,> 100 µM
CSCC[C@H](NC(=O)[C@H](CCCNC(=N)N)NC(=O)[C@H](CCCNC(=N)N)NC(=O)[C@@H](NC(=O)[C@H](CCC(=O)O)NC(=O)[C@H](CCC(=O)O)NC(=O)[C@H](C)NC(=O)[C@H](C)NC(=O)[C@H](C)NC(C)=O)[C@@H](C)O)C(=O)N[C@@H](CC(C)C)C(=O)N[C@@H](Cc1c[nH]cn1)C(=O)N[C@@H](CCCNC(=N)N)C(=O)N[C@@H](C)C(=O)N[C@@H](Cc1ccccc1)C(=O)N[C@@H](CC(=O)O)C(=O)N[C@H](C(=O)N[C@@H](CC(C)C)C(=O)N[C@@H](C)C(N)=O)[C@@H](C)O [Peptide T20A],16%,> 100 µM
Ac-ATAEETRRALHRAFDTLA-NH2 (N-terminus and C-terminus assumed) [Peptide M27A],–,> 100 µM
Ac-ATAEETRRMLARAFDTLA-NH2 (N-terminus and C-terminus assumed) [Peptide H29A],25%,> 100 µM
Ac-ATAEETRRMLHAAFDTLA-NH2 (N-terminus and C-terminus assumed) [Peptide R30A],26%,> 100 µM
